The values that follow come from US20020059032A1, “Rational selection of putative peptides from identified nucleotide or peptide sequences” (priority 1999, published 2002).

Where a SMILES comes first, the peptide text is derived from it.

One assay concerns HeLa cells. Kind of assay: Binding test with HeLa cells.
Conditions: not given
The method, then:
Studies of the Bonding of Labelled Agonists on the HeLa Cell Line
The cells are cultured in a DMEM medium supplemented with 10% foetal calf serum, 0.5% of antibiotics (penicillin/streptomycin) and 0.5% of glutamine.
24 to 48 hours before experimentation, the cells are replicated in 24-well plates with approximately 100,000 cells per well and per ml.
The bonding studies are carried out with a BindH buffer
For the experiment, the medium is removed and the cells washed twice with 1 ml of buffer. The reaction medium (500 μl) containing the labelled agonist is added into each well in the presence or absence of the cold homologous agonist and the plates are incubated for one hour at 37° C.
The reaction is stopped by removal of the reaction volume and the wells are rinsed twice with 1 ml of BindH with 20% BSA.
The cells are lysed with 500 μl of 1N soda for 20 minutes at ambient temperature and the radioactivity associated with the lysate is evaluated using a gamma counter.
For “YFKIDNVKKARVQWA [Example 3, H-YFKIDNVKKARVQWA-NH2]”, the IC50 came to 50000 nM.

A further assay concerns different rat organ membranes. In words: Binding test with different rat organ membranes.
Conditions: not given
How it is done:
(§1) The membranes are placed in a buffer (50 mM of Tris-HCl, 5 mM of MgCl2 and 0.1 g/l of bacitracin) at the desired protein concentration (iodized CCK bond, 0.1 mg of protein/ml; iodized gastrin bond: 0.5 mg of proteins/ml). They are then incubated in the presence of a labelled ligand in a total volume of 500 μl (about 10 pM for the iodized CCK8, 20 pM for the iodized gastrin13), 50-80 minutes at 25° C., and in the presence or absence of cold agonists. The reaction is stopped with 3 ml of additional BSA buffer (20 g/l) at 4° C., the tubes are centrifuged at 10,000×g, the supernatant is drawn off and the radioactivity associated with the precipitate is evaluated with a γ counter.
(§2) Membrane Preparations of Different Rat Tissues and Organs
(§3) 1) The rats are sacrificed by rupturing their cervical vertebrae, and the different tissues are removed and washed several times in a large volume of NaCl at 9 per thousand.
(§4) The following steps are carried at 4° C.
(§5) 2) The tissues and organs are transferred, still separately, in a sucrose buffer containing:
(§6) They are then cut up carefully with the aid of fine scissors and crushed using an ultraturax apparatus. […]
(§7) 8) The protein content in the membrane suspensions is evaluated using a Bradford dosage device (BioRad, acording to the manufacturer's instructions). […]
“GQDSIEPVPGQK [Example 1, H-GQDSIEPVPGQK-NH2]”: the “Results, binding test with different rat organ membranes (positive/negative)” value is “negative”. As to PLEPSGG [Example 4, H-PLEPSGG-NH2], the “Results, binding test with different rat organ membranes (positive/negative)” value is “negative”.

For the next assay, the system named is Jurkat T cells. In words: Binding test with Jurkat T cells. On the set-up: species or system human.
Conditions: not given
The method, then:
Bonding of Radiolabelled Agonists to Jurkat T cells
Culture Conditions of the Cells of the Jurkat T Human Lymphocytic Line
The Jurkat cells are cultured in an RPMI 1640 medium supplemented with foetal calf serum (10% volume/volume) and antibiotics (50 U/ml of penicillin and 50 μg/ml of streptomycin) serum in a humid incubator at 37° C. under an atmosphere of 5% CO2 in air.
The cells are obtained by centrifugation (514 g, 5 minutes), then are washed twice in a standard medium containing: 98 mM of NaCl; 6 mM of KCl; 2.5 mM of NaH2PO4; 1.5 mM of CaCl2, 1 mM of MgCl2, 5 mM of Na-pyruvate; 5 mM of Na-fumarate; 5 mM of Na-glutamate; 2 mM of glutamine; 11.5 mM of glucose; 24.5 mM of Hepes (N-[2-hydroxyethyl]piperazine-N′-[2-ethane sulfonic acid]); 0.5 g/l of bacitracin; 0.1 g/l of soya bean trypsin inhibitor, pH 7.4
Experiments with agonist bonds labelled with iodine 125 (about 50 picomolars) are carried out at 37° C. under agitation for 45-60 minutes in a final volume of 0.5 ml of standard medium containing 2×10^6 cells (4×10^6 cells/ml) and in the presence or absence of competitors. The non-specific bond is evaluated in the presence of a micromolar concentration of cold homologous peptide.
With “ELGRGPGPPLPERGA [Example 5, H-ELGRGPGPPLPERGA-NH2]”, the “Results, binding test with Jurkat T cells (positive/negative)” value was “negative”. On the same count and under the same terms, under “GQDSIEPVPGQK [Example 1, H-GQDSIEPVPGQK-NH2]” stands “negative”; under “YERNRQAAAANPENSRGK [Example 6, H-YERNRQAAAANPENSRGK-NH2]”, “negative”.

The target of a further assay is rat brain membranes. In words: Binding test with rat brain membranes.
Conditions: not given
The method, then: as §1, §2, §3, §4, §5, §6, §7
The compound “ELGRGPGPPLPERGA [Example 5, H-ELGRGPGPPLPERGA-NH2]” yielded an IC50 of 90000 nM. The same measure, in the same setting: the result for “YERNRQAAAANPENSRGK [Example 6, H-YERNRQAAAANPENSRGK-NH2]” reads 90000 nM.

The next assay concerns the target guinea pig brain membranes. In words: Binding test with guinea pig brain membranes. As to conditions: tested on guinea pig brain membranes; read-out: IC50 = 100 μM.
In the case of `CC(C)[C@H](NC(=O)[C@H](C)NC(=O)[C@H](CCCCN)NC(=O)[C@H](C)NC(=O)[C@@H]1CCCN1C(=O)[C@@H](NC(=O)[C@@H](NC(=O)[C@@H](N)[C@@H](C)O)C(C)C)[C@@H](C)O)C(=O)N[C@H](C(=O)N[C@H](C(=O)N1CCC[C@H]1C(N)=O)[C@@H](C)O)[C@@H](C)O` [Example 59, H-TVTPAKAVTTP-NH2] (H-TVTPAKAVTTP-NH2), the IC50 was 410 nM. Take `CC[C@H](C)[C@H](NC(=O)[C@H](CCCCN)NC(=O)[C@H](Cc1ccccc1)NC(=O)[C@H](CCC(N)=O)NC(=O)[C@H](C)NC(=O)[C@H](Cc1c[nH]c2ccccc12)NC(=O)[C@@H](N)CCC(N)=O)C(=O)N[C@@H](CCC(N)=O)C(=O)N[C@@H](Cc1c[nH]c2ccccc12)C(=O)N[C@@H](CC(N)=O)C(=O)N[C@@H](CCC(N)=O)C(=O)N[C@@H](CCCNC(=N)N)C(=O)N[C@@H](Cc1c[nH]c2ccccc12)C(N)=O` [Example 61, H-QWAQFKIQWNQRW-NH2] (H-QWAQFKIQWNQRW-NH2): the IC50 worked out at 1110 nM. The same measure, in the same setting: the result for `CC[C@H](C)[C@H](NC(=O)CNC(=O)[C@H](CCCCN)NC(=O)[C@H](CO)NC(=O)[C@H](Cc1ccc(O)cc1)NC(=O)[C@@H](N)CC(=O)O)C(=O)N[C@H](C(=O)N[C@H](C(=O)N[C@H](C(=O)N[C@@H](CCCCN)C(=O)N[C@@H](CC(N)=O)C(=O)N[C@@H](CC(=O)O)C(N)=O)[C@@H](C)O)C(C)C)[C@@H](C)O` [Example 62, H-DYSKGITVTKND-NH2] (H-DYSKGITVTKND-NH2) reads 670 nM. The same measure, in the same setting: under `CC[C@H](C)[C@H](NC(=O)[C@@H](N)C(C)C)C(=O)N[C@@H](CCC(N)=O)C(=O)N[C@@H](Cc1ccc(O)cc1)C(=O)N[C@@H](CC(C)C)C(=O)N[C@@H](C)C(=O)N[C@@H](Cc1c[nH]cn1)C(=O)N[C@H](C(=O)N[C@@H](C)C(=O)N[C@@H](CO)C(=O)N[C@@H](CO)C(=O)N[C@@H](Cc1c[nH]cn1)C(=O)N[C@@H](CCCCN)C(N)=O)C(C)C` [Example 63, H-VIQYLAHVASSHK-NH2] (H-VIQYLAHVASSHK-NH2) stands 20 nM; under `CSCC[C@H](NC(=O)[C@H](CC(C)C)NC(=O)CNC(=O)[C@H](Cc1ccccc1)NC(=O)[C@H](Cc1ccccc1)NC(=O)[C@H](CCC(N)=O)NC(=O)[C@H](CCC(N)=O)NC(=O)[C@@H]1CCCN1C(=O)[C@H](CCCCN)NC(=O)[C@@H]1CCCN1C(=O)[C@@H](N)Cc1ccc(O)cc1)C(N)=O` [Example 64, H-YPKPQQFFGLM-NH2] (H-YPKPQQFFGLM-NH2), 1 nM. Same read-out and setting: the result for `CC(C)C[C@H](NC(=O)[C@H](CCC(N)=O)NC(=O)[C@H](C)NC(=O)[C@@H](NC(=O)[C@H](CCC(=O)O)NC(=O)[C@H](CCC(=O)O)NC(=O)[C@H](CCCCN)NC(=O)[C@@H]1CCCN1C(=O)[C@@H]1CCCN1C(=O)[C@@H](N)CCC(=O)O)[C@@H](C)O)C(=O)N[C@H](C(=O)NCC(=O)N1CCC[C@H]1C(=O)N[C@@H](CCC(=O)O)C(=O)N[C@@H](C)C(N)=O)[C@@H](C)O` [Example 65, H-EPPKEETAQLTGPEA-NH2] (H-EPPKEETAQLTGPEA-NH2) reads 4000 nM. In the case of `CSCC[C@H](NC(=O)[C@@H](N)Cc1ccc(O)cc1)C(=O)N[C@@H](Cc1c[nH]cn1)C(=O)NCC(=O)N[C@@H](Cc1c[nH]cn1)C(=O)N[C@@H](CCCNC(=N)N)C(=O)N[C@@H](C)C(=O)N1CCC[C@H]1C(=O)NCC(N)=O` [Example 66, H-YMHGHRAPG-NH2] (H-YMHGHRAPG-NH2), the IC50 was determined as 2 nM.

`CSCC[C@H](N)C(=O)NCC(=O)N[C@@H](CCCCN)C(=O)N[C@@H](Cc1c[nH]c2ccccc12)C(=O)N[C@@H](Cc1c[nH]cn1)C(=O)N[C@H](C(=O)NCC(N)=O)C(C)C` [Example 67, H-MGKWHVG-NH2] (H-MGKWHVG-NH2): the IC50 is 160 nM. For `CC(C)C[C@H](NC(=O)[C@H](CO)NC(=O)[C@H](Cc1c[nH]cn1)NC(=O)[C@H](CO)NC(=O)[C@H](CO)NC(=O)[C@@H](N)CO)C(=O)N[C@@H](CO)C(=O)N[C@@H](Cc1c[nH]cn1)C(=O)N[C@@H](CCCCN)C(N)=O` [Example 68, H-SSSHSLSHK-NH2] (H-SSSHSLSHK-NH2), the IC50 is 25 nM. On the same count and under the same terms, the result for `CC[C@H](C)[C@H](NC(=O)[C@H](CCCNC(=N)N)NC(=O)[C@H](CC(C)C)NC(=O)[C@H](CC(C)C)NC(=O)CNC(=O)[C@@H](NC(=O)[C@@H](N)Cc1c[nH]cn1)C(C)C)C(=O)N[C@@H](CCCCN)C(N)=O` [Example 69, H-HVGLLRIK-NH2] (H-HVGLLRIK-NH2) reads 37 nM.

Broadly, the IC50 is the midpoint of a concentration-inhibition curve.
